What was measured:
Na^+,K^+ -ATPase [1] = target: T1, Na^+,K^+ -ATPase (Homo sapiens, UniProt P05023); test: displacement of the specific 3H-ouabain binding from the purified Na+,K+-ATPase receptor; settings: read-out: Binding ^3 H-Ouab. Displacement log. IC50 (converted)
T1 construct: receptor purified according to Jorgensen (Jorgensen P., BBA, 1974,356, 36); from tissue
Source text: (§1) To test the affinity for the receptor site of the Na^+,K^+ -ATPase and the agonist or antagonist activity on the enzyme, the following tests are used: a) displacement of the specific 3-Houabain binding from the Na^+,K^+ -ATPase receptor purified according to Jorgensen (Jorgensen P., BBA, 1974,356, 36) and Erdmann (L. Brown and E. Erdmann., Arzneim. Forsh., 1984, 34 (II), 1314); b) inhibition of the activity of the purified Na^+,K^+ -ATPase measured as % of hydrolysis of ^32 P-ATP in presence and in absence of the tested compound (F. Noel and Godfraind., Biochem. Pharmacol., 1984, 33, 47).

Na^+,K^+ -ATPase [2] = target: T1, Na^+,K^+ -ATPase; test: inhibition of the activity of the purified Na+,K+-ATPase, measured as % of hydrolysis of 32P-ATP; assay type: biochemical; settings: read-out: Inhibitory Activity log IC50 (converted)
Source text: as §1

Row | SMILES | IC50 (Na^+,K^+ -ATPase [1]) | IC50 (Na^+,K^+ -ATPase [2])
1 | N=C(N)NN=CC1CCC2(CCC(O)CC2)CC1 (stereo not shown) [Comp. I-az, 9-Hydroxy-3-guanidinoiminomethyl-spirol[5.5]undecane] | 15.8 µM | 63.1 µM
2 | NC(CO)COC1CCC2(CCC(CCc3ccoc3)CC2)CC1 (stereo not shown) [Comp. I-u, 9-(2-Amino-3-hydroxypropoxy)-3-(2-(3-furyl)ethyl)-spiro[5.5]undecane] | 50.1 µM | 50.1 µM
3 | c1cc(CC2CCC3(CCC(COCCN4CCCC4)CC3)CC2)co1 (stereo not shown) [Comp. I-j, 9-(2-(N-Pyrrolidinyl)ethoxy)methyl-3-(3-furyl)methyl-spiro[5.5]undecane] | 7.94 µM | 50.1 µM
4 | OC1(Cc2ccoc2)CCC2(CCC(COCCN3CCCC3)CC2)CC1 (stereo not shown) [Comp. I-ab, 9-(2-(N-Pyrrolidinyl)ethoxy)methyl-3-(3-furyl)meth-yl-3-hydroxy-spiro[5.5]undecane] | 15.8 µM | 15.8 µM
5 | O=C1C=C(CCC2CCC3(CC2)CCC(OCCN2CCCC2)CC3)CO1 (stereo not shown) [Comp. I-bh, 9-(2-(N-Pyrrolidinyl)ethoxy)-3-(2-(2-oxo-[5H]-4-furyl)-ethyl)-spiro[5.5]undecane] | 63.1 µM | 100 µM
6 | c1cc(CCC2CCC3(CC2)CCC(OCCN2CCCC2)CC3)co1 (stereo not shown) [Comp. I-g, 9-(2-(N-Pyrrolidinyl)ethoxy)-3-(2-(3-furyl)ethyl)-spiro[5.5]undecane] | 12.6 µM | 15.8 µM
7 | c1cc(CC2CCC3(CCC(COCCCN4CCCC4)CC3)CC2)co1 (stereo not shown) [Comp. I-r, 9-(3-(N-Pyrrolidinyl)propoxy)methyl-3-(3-furyl)-methyl-spiro[5.5]undecane] | 31.6 µM | 12.6 µM
8 | c1cncc(CCC2CCC3(CC2)CCC(OCCN2CCCC2)CC3)c1 (stereo not shown) [Comp. I-h, 9-(2-(N-Pyrrolidinyl)ethoxy)-3-(2-(3-pyridyl)ethyl)-spiro[5.5]undecane] | 25.1 µM | 100 µM
9 | N=C(N)NN=C1CCC2(CC1)CCC(CO)CC2 (stereo not shown) [Comp. I-ay, 9-Hydroxymethyl-3-guanidinoimino-spiro[5.5]undecane] | 25.1 µM | 100 µM
10 | c1cc(CC2CCC3(CCC(CSCCN4CCCC4)CC3)CC2)co1 (stereo not shown) [Comp. I-bf, 9-(2-(N-Pyrrolidinyl)ethyl-thiomethyl)-3-(3-furyl)methyl-spiro[5.5]undecane] | 39.8 µM | 100 µM
11 | NCCSCC1CCC2(CC1)CCC(Cc1ccoc1)CC2 (stereo not shown) [Comp. 1-be, 9-(2-Aminoethylthiomethyl)-3-(3-furyl)methyl-spiro[5.5]undecane] | 10 µM | 15.8 µM
12 | OC1(CCc2ccoc2)CCC2(CCC(OCCN3CCCC3)CC2)CC1 (stereo not shown) [Comp. I-x, 9.(2-(N-pyrrolidinyl)ethoxy)-3-(2-(3-furyl)ethyl)-3-hydroxy-spiro[5.5]undecane] | 100 µM | 100 µM
13 | C(=CC1CCC2(CC1)CCC(OCCN1CCCC1)CC2)c1ccoc1 (mixture of isomers) [Comp. I-a, (EZ)-9-(2(N-Pyrrolidinyl)ethoxy)-3-(2-(3-furyl)vinyl)-spiro[5.5]undecane] | 79.4 µM | 25.1 µM
14 | C1CCN(CCOC2CCC3(CCC(CCC4CCOC4)CC3)CC2)C1 (racemic) [Comp. 1-i, (RS)-9-(2-(N-Pyrrolidinyl)ethoxy)-3-(2-(3-(RS)-tetra-hydrofuryl)ethyl)-spiro[5.5]undecane] | 100 µM | 100 µM
15 | c1cc(CCC2CCC3(CC2)CCC(OCCCN2CCCC2)CC3)co1 (stereo not shown) [Comp. I-m] | 31.6 µM | 50.1 µM
16 | OC(COC1CCC2(CCC(CCc3ccoc3)CC2)CC1)CN1CCCC1 (stereo not shown) [Comp. I-t, 9-(3-(N-Pyrrolidinyl)-2-hydroxypropoxy)-3-(2-(3-furyl)ethyl)-spiro[5.5]undecane] | 100 µM | 50.1 µM
17 | O=C1OCC=C1CCC1CCC2(CC1)CCC(OCCN1CCCC1)CC2 (stereo not shown) [Comp. 1-bg, 9-(2-(N-pyrrolidinyl)ethoxy)-3-(2-(2-oxo-[5H]-3-furyl)ethyl)-spiro[5.5]undecane] | 100 µM | 100 µM

From patent publication US5444082A, “3,9-disubstituted-spiro(5.5)undecanes active on the cardiovascular system, process for their preparation and pharmaceutical composition containing same” (Sigma-Tau Industrie Farmaceutiche Riunite S.p.A., priority 1992, dated 1995)
